Test results reported in US20120202822A1, “COMBINATION” (priority 2009, published 2012).

Experiments:
Test in all cases: Fixed Ratio Drug Combination Assay, cell proliferation (CellTiter Glo)
Type in all cases: cell-based, human
SW48 = conditions: 72 hours; for IC50: Homo sapiens, read-out: gIC50
Protocol: (§1) Combination drug tests with Compounds A and B were conducted using a panel of cell lines from human colon cancers (n=25) (Table 1). Cell lines were purchased commercially [from ATCC (Manassas, Va., USA) or DSMZ (Braunschweig, Germany)] and grown in RPMI-1640 supplemented with 2 mM glutamine, 1 mM sodium pyruvate and 10% fetal bovine serum and maintained at 37° C. and 5% CO2 in a humid incubator.
(§2) The dilution design of the Fixed Ratio Drug Combination Assay can be seen in FIG. 1. First, the test compounds were prepared as 10 mM stocks in 100% dimethyl sulfoxide (DMSO). Further dilutions of the compounds were made with DMSO. The first test compound (designated as Compound A) is diluted horizontally in a 96 well microtiter plate in rows B-E using a 3-fold dilution series for 10 dilution points. A second test compound (designated as Compound B) is diluted horizontally in a separate 96 well microtiter plate in rows D-G using a 3-fold dilution series for 10 dilution points. The two compounds are combined using equal volumes from each drug plate into cell culture media. […] Compound A is individually titrated in rows B and C, while only Compound B is dosed in rows F and G of the plate. An additional 1:10 dilution of the drugs is performed in cell culture media prior to addition to the cells. Drug addition to the cells results in a further 1:2 dilution of drugs. The total dilution of the drug plate to the cells is […]. The final dosing concentration range for Compound B was 0.1-1000.0 nM and was 0.5-10000.0 nM for Compound A. The positive control consists of culture media with DMSO at 0.1% and cells and no drug. The negative control consists of culture media with DMSO at 0.1%. solution.
(§3) Assays were performed in 96 well microtiter plates with appropriate seeding densities estimated from previous studies of each cell line. Following dosing, the cell lines are incubated at 37° C., 5% CO2 in humid air for 72 hours. Cell proliferation was measured using the CellTiter Glo (Promega Corporation, Madison, Wis., USA) reagent according to the manufacturer's protocol. The plates are treated with CellTiter Glo solution and are analyzed for RLU (relative light units) using a Molecular Devices SpectraMax M5 (Sunnyvale, Calif., USA) plate reader.
(§4) Results are expressed as a percentage of the number of cells present at the time of compound addition value (T0) and plotted against compound(s) concentration. The percent intensity values were used in model 205 of the IDBS XLfit plug-in for Microsoft Excel to calculate gIC50 values using a 4 parameter logistical fit. Background correction is made by subtraction of values from wells containing no cells. The midpoint of the growth window (the gIC50) falls half way between the number of cells at the time of compound addition and the growth of control cells treated with DMSO at 72 hrs. The number of cells at time zero is divided from the intensity value at the bottom of the response curve (Ymin) to generate a measure for cell death (Ymin/T0). A value below 1 for Ymin/T0 indicates stronger potency with the treatment when compared to higher values. For duplicate assays, all response metrics are averaged for presentation.
(§5) Three independent metrics were used to analyze the combinatorial effects on growth inhibition of Compound B and Compound A. • 1. Excess over Highest Single Agent (EOHSA)—One standard criterion for measuring drug combinatorial effects is analyzing the effects on cell growth inhibition in absolute terms. In this case, the combination of drugs is compared to the more responsive of the two individual treatments (single agent). For each combination experiment, the percent effect relative to the highest single agent for each dose along the curve is generated. This measure of “Excess of Highest Single Agent (EOHSA)” is one of the criteria used for evaluating synergy of drug combinations. […]

SW948 = conditions: 72 hours; for IC50: Homo sapiens, read-out: gIC50
Protocol: as §1, §2, §3, §4, §5

SW480 = conditions: 72 hours; for IC50: Homo sapiens, read-out: gIC50
Protocol: as §1, §2, §3, §4, §5

COLO205 = conditions: for Ymin/T0: 72 hours; for IC50: Homo sapiens, COLO 205, 72 hours, read-out: gIC50
Protocol: as §1, §2, §3, §4, §5

T84 = conditions: 72 hours; for IC50: Homo sapiens, read-out: gIC50
Protocol: as §1, §2, §3, §4, §5

SW1463 = conditions: 72 hours; for IC50: Homo sapiens, read-out: gIC50
Protocol: as §1, §2, §3, §4, §5

HCC2998 = conditions: for Ymin/T0: 72 hours; for IC50: Homo sapiens, HCC 2998, 72 hours, read-out: gIC50
Protocol: as §1, §2, §3, §4, §5

NCIH508 = conditions: for Ymin/T0: 72 hours; for IC50: Homo sapiens, NCI-H508, 72 hours, read-out: gIC50
Protocol: as §1, §2, §3, §4, §5

NCIH716 = conditions: for Ymin/T0: 72 hours; for IC50: Homo sapiens, NCI-H716, 72 hours, read-out: gIC50
Protocol: as §1, §2, §3, §4, §5

HCT8 = conditions: for Ymin/T0: 72 hours; for IC50: Homo sapiens, HCT-8, 72 hours, read-out: gIC50
Protocol: as §1, §2, §3, §4, §5

LS174T = conditions: 72 hours; for IC50: Homo sapiens, read-out: gIC50
Protocol: as §1, §2, §3, §4, §5

SW403 = conditions: for Ymin/T0: 72 hours; for IC50: Homo sapiens, SW-403, 72 hours, read-out: gIC50
Protocol: as §1, §2, §3, §4, §5

KM12 = conditions: 72 hours; for IC50: Homo sapiens, read-out: gIC50
Protocol: as §1, §2, §3, §4, §5

HCT116 = conditions: for Ymin/T0: 72 hours; for IC50: Homo sapiens, HCT-116, 72 hours, read-out: gIC50
Protocol: as §1, §2, §3, §4, §5

RKO = conditions: 72 hours; for IC50: Homo sapiens, read-out: gIC50
Protocol: as §1, §2, §3, §4, §5

HCT15 = conditions: for Ymin/T0: 72 hours; for IC50: Homo sapiens, HCT-15, 72 hours, read-out: gIC50
Protocol: as §1, §2, §3, §4, §5

NCIH630 = conditions: for Ymin/T0: 72 hours; for IC50: Homo sapiens, NCI-H630, 72 hours, read-out: gIC50
Protocol: as §1, §2, §3, §4, §5

SW837 = conditions: 72 hours; for IC50: Homo sapiens, read-out: gIC50
Protocol: as §1, §2, §3, §4, §5

COLO320DM = conditions: 72 hours; for IC50: Homo sapiens, COLO 320DM, read-out: gIC50
Protocol: as §1, §2, §3, §4, §5

LS1034 = conditions: for Ymin/T0: 72 hours; for IC50: Homo sapiens, LS-1034, 72 hours, read-out: gIC50
Protocol: as §1, §2, §3, §4, §5

DLD1 = conditions: for Ymin/T0: 72 hours; for IC50: Homo sapiens, DLD-1, 72 hours, read-out: gIC50
Protocol: as §1, §2, §3, §4, §5

Q: `CC(C)(C)c1nc(-c2cccc(NS(=O)(=O)c3c(F)cccc3F)c2F)c(-c2ccnc(N)n2)s1` [Compound A, N-{3-[5-(2-amino-4-pyrimidinyl)-2-(1,1-dimethylethyl)-1,3-thiazol-4-yl]-2-fluorophenyl}-2,6-difluorobenzenesulfonamide] was tested. Which Ymin/T0 (SW48) did it give?
A: 4.7

Q: And the IC50 (SW48)?
A: > 10000 nM

Q: What about the Ymin/T0 (SW948) of the same compound?
A: 1.5

Q: What about the IC50 (SW948) of the same compound?
A: > 10000 nM

Q: And the Ymin/T0 (SW480)?
A: 2.9

Q: What about the IC50 (SW480) of the same compound?
A: > 10000 nM

Q: And the Ymin/T0 (COLO205)?
A: 1.2

Q: What about the IC50 (COLO205) of the same compound?
A: 7.3 nM

Q: And the Ymin/T0 (T84)?
A: 2.0

Q: What about the IC50 (T84) of the same compound?
A: > 10000 nM

Q: And the Ymin/T0 (SW1463)?
A: 1.9

Q: What about the IC50 (SW1463) of the same compound?
A: > 10000 nM

Q: And the Ymin/T0 (HCC2998)?
A: 2.8

Q: What about the IC50 (HCC2998) of the same compound?
A: 2400 nM

Q: What about the Ymin/T0 (NCIH508) of the same compound?
A: 2.1

Q: What about the IC50 (NCIH508) of the same compound?
A: 366 nM

Q: What about the Ymin/T0 (NCIH716) of the same compound?
A: 1.3

Q: What about the IC50 (NCIH716) of the same compound?
A: > 10000 nM

Q: And the Ymin/T0 (HCT8)?
A: 9.2

Q: And the IC50 (HCT8)?
A: > 10000 nM

Q: What about the Ymin/T0 (LS174T) of the same compound?
A: 7.0

Q: What about the IC50 (LS174T) of the same compound?
A: > 10000 nM

Q: What about the Ymin/T0 (SW403) of the same compound?
A: 2.7

Q: What about the IC50 (SW403) of the same compound?
A: > 10000 nM

Q: And the Ymin/T0 (KM12)?
A: 8.8

Q: What about the IC50 (KM12) of the same compound?
A: > 10000 nM

Q: What about the Ymin/T0 (HCT116) of the same compound?
A: 9.2

Q: What about the IC50 (HCT116) of the same compound?
A: > 10000 nM

Q: What about the Ymin/T0 (RKO) of the same compound?
A: 6.7

Q: And the IC50 (RKO)?
A: 8950 nM

Q: What about the Ymin/T0 (HCT15) of the same compound?
A: 6.1

Q: And the IC50 (HCT15)?
A: > 10000 nM

Q: And the Ymin/T0 (NCIH630)?
A: 1.9

Q: And the IC50 (NCIH630)?
A: 5000 nM

Q: What about the Ymin/T0 (SW837) of the same compound?
A: 2.3

Q: What about the IC50 (SW837) of the same compound?
A: > 10000 nM

Q: And the Ymin/T0 (COLO320DM)?
A: 4.9

Q: And the IC50 (COLO320DM)?
A: > 10000 nM

Q: What about the Ymin/T0 (LS1034) of the same compound?
A: 1.9

Q: And the IC50 (LS1034)?
A: > 10000 nM

Q: What about the Ymin/T0 (DLD1) of the same compound?
A: 6.7

Q: And the IC50 (DLD1)?
A: 199 nM

Q: `COc1ncc(-c2ccc3nccc(-c4ccnnc4)c3c2)cc1NS(=O)(=O)c1ccc(F)cc1F` [Compound B, 2,4-difluoro-N-{2-(methyloxy)-5-[4-(4-pyridazinyl)-6-quinolinyl]-3-pyridinyl}benzenesulfonamide] was tested. Which Ymin/T0 (SW48) did it give?
A: 0.4

Q: And the IC50 (SW48)?
A: 2.6 nM

Q: What about the Ymin/T0 (SW948) of the same compound?
A: 0.4

Q: And the IC50 (SW948)?
A: 0.3 nM

Q: What about the Ymin/T0 (SW480) of the same compound?
A: 1.1

Q: What about the IC50 (SW480) of the same compound?
A: 5.4 nM

Q: What about the Ymin/T0 (COLO205) of the same compound?
A: 1.4

Q: What about the IC50 (COLO205) of the same compound?
A: 12 nM

Q: What about the Ymin/T0 (T84) of the same compound?
A: 0.7

Q: And the IC50 (T84)?
A: 6 nM

Q: What about the Ymin/T0 (SW1463) of the same compound?
A: 0.9

Q: And the IC50 (SW1463)?
A: 8.2 nM

Q: And the Ymin/T0 (HCC2998)?
A: 0.9

Q: What about the IC50 (HCC2998) of the same compound?
A: 4.7 nM

Q: What about the Ymin/T0 (NCIH508) of the same compound?
A: 0.5

Q: And the IC50 (NCIH508)?
A: 1.2 nM

Q: And the Ymin/T0 (NCIH716)?
A: 0.7

Q: What about the IC50 (NCIH716) of the same compound?
A: 1.1 nM

Q: And the Ymin/T0 (HCT8)?
A: 1.6

Q: And the IC50 (HCT8)?
A: 8.4 nM

Q: What about the Ymin/T0 (LS174T) of the same compound?
A: 0.8

Q: And the IC50 (LS174T)?
A: 34.1 nM

Q: And the Ymin/T0 (SW403)?
A: 0.5

Q: And the IC50 (SW403)?
A: 1.5 nM

Q: What about the Ymin/T0 (KM12) of the same compound?
A: 1.4

Q: What about the IC50 (KM12) of the same compound?
A: 22.1 nM

Q: And the Ymin/T0 (HCT116)?
A: 4.1

Q: What about the IC50 (HCT116) of the same compound?
A: 34.2 nM

Q: What about the Ymin/T0 (RKO) of the same compound?
A: 3.0

Q: And the IC50 (RKO)?
A: 10.9 nM

Q: What about the Ymin/T0 (HCT15) of the same compound?
A: 2.4

Q: And the IC50 (HCT15)?
A: 7.2 nM

Q: What about the Ymin/T0 (NCIH630) of the same compound?
A: 0.9

Q: What about the IC50 (NCIH630) of the same compound?
A: 18.3 nM

Q: What about the Ymin/T0 (SW837) of the same compound?
A: 0.8

Q: And the IC50 (SW837)?
A: 6.4 nM

Q: And the Ymin/T0 (COLO320DM)?
A: 1.5

Q: What about the IC50 (COLO320DM) of the same compound?
A: 4.7 nM

Q: What about the Ymin/T0 (LS1034) of the same compound?
A: 0.5

Q: And the IC50 (LS1034)?
A: 1.4 nM

Q: And the Ymin/T0 (DLD1)?
A: 1.8

Q: And the IC50 (DLD1)?
A: 20.5 nM
